Assay results published in patent US4229371A, “Ureylene naphthalene sulfonic acid intermediates” (American Cyanamid Company, priority 1978, dated 1980).
Counter-ions that a name gives are not always drawn. Like-named read-outs stand apart in the source and are kept apart here.

Experiments:
[1] = system: late components of human complement (C3-C9); experiment: Test, Code 035 (C3-C9 inhibitor); format: cell-based; conditions: higher well number indicates higher activity
Text: (§1) An active inhibitor protects C2 from C1 and C4; (ii) Test, Code 035 (C3-C9 inhibitor)--This test determines the ability of the late components of human complement (C3-C9) to lyse EAC 142 in the presence of appropriate dilutions of the test compound. An active inhibitor protects EAC 142 from lysis by human C3-C9; (iii) Test, Code 036 (C-Shunt inhibitor)--In this test human erythrocytes rendered fragile are lysed in autologous serum via the shunt pathway activated by cobra venom factor in the presence of appropriate dilutions of the test compound. Inhibition of the shunt pathway results in failure of lysis; (iv) Forssman Vasculitis Test--Here, the well known complement dependent lesion, Forssman vasculitis, is produced in guinea pigs by intradermal injection of rabbit anti-Forssman antiserum. The lesion is measured in terms of diameter, edema and hemorrhage and the extent to which a combined index of these is inhibited by prior intraperitoneal injection of the test compound at 200 mg/kg is then reported, unless otherwise stated; (v) Forssman Shock Test--Lethan shock is produced in guinea pigs by an i.v. injection of anti-Forssman antiserum and the harmonic mean death time of treated guinea pigs is compared with that of simultaneous controls; (vi) Complement Level Reduction Test--In this test, the above dosed guinea pigs, or others, are bled for serum and the complement level is determined in undiluted serum by the capillary tube method of U.S. Pat. No. 3,876,376 and compared to undosed control guinea pigs; and (vii) Cap 50 Test--Here, appropriate amounts of the test compound are added to a pool of guinea pig serum in vitro, after which the undiluted serum capillary tube assay referred to above is run. The concentration of compound inhibiting 50% is reported.
(§2) *Code designation for tests employed as referred herein.
(§3) **Activity in wells a serial dilution assay. Higher well number indicates
(§4) higher activity. The serial dilutions are twofold.

activated human C1 = biological target: T1, activated human C1 (Homo sapiens, UniProt P09871); experiment: Test, Code 026 (C1 inhibitor); format: biochemical; conditions: higher well number indicates higher activity
T1 construct: test of C2 destruction in presence of C4
T1 sequence (P09871 16-688): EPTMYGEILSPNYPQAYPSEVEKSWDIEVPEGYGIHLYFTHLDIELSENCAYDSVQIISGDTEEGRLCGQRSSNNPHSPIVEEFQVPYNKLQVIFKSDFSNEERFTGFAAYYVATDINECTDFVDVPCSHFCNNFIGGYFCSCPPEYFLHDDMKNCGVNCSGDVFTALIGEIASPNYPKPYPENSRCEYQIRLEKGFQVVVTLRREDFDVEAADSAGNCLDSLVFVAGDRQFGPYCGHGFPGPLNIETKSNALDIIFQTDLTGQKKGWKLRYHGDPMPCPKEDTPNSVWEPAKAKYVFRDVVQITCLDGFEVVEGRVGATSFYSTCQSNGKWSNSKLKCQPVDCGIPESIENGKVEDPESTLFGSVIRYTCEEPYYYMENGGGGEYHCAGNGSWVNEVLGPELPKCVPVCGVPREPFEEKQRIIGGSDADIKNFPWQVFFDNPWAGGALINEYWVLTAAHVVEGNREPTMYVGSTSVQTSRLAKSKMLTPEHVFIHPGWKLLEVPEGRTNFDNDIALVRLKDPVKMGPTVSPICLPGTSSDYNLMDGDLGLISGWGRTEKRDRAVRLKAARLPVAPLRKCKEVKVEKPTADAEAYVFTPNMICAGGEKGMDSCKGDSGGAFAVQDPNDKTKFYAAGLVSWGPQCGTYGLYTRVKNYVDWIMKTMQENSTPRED
T1 sequence (P00736 18-705 partner): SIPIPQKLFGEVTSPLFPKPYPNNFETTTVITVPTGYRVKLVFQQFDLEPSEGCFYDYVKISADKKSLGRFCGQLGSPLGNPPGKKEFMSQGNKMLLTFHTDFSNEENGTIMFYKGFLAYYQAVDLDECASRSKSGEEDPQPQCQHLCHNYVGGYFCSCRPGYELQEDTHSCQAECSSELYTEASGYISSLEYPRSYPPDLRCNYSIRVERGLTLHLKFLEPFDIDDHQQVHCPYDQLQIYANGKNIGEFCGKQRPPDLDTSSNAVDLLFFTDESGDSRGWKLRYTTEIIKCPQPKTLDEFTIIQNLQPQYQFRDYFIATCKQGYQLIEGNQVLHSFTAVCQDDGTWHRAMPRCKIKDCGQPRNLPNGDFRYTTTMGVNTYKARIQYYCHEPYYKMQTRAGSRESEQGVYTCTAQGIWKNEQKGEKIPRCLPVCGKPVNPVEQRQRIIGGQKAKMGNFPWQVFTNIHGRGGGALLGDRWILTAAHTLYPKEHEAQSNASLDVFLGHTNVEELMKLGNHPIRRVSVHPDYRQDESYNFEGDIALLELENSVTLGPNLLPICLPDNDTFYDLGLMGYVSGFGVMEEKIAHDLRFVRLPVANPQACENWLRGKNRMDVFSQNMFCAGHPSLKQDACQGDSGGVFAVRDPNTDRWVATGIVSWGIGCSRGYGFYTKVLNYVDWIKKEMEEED
T1 sequence (P02745 23-245 partner): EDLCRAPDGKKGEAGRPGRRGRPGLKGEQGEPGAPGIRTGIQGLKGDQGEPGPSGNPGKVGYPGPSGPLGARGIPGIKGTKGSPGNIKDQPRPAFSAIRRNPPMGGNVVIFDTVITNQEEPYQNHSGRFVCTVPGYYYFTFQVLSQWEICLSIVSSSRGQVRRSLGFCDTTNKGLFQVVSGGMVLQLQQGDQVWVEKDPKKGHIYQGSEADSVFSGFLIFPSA
T1 sequence (P02746 28-253 partner): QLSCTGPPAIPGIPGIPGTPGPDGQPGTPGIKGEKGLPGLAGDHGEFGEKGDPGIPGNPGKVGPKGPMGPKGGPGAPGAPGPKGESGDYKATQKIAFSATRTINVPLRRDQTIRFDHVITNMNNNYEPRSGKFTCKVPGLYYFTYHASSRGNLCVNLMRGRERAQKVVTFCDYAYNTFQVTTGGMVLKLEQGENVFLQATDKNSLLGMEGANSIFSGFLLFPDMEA
T1 sequence (P02747 29-245 partner): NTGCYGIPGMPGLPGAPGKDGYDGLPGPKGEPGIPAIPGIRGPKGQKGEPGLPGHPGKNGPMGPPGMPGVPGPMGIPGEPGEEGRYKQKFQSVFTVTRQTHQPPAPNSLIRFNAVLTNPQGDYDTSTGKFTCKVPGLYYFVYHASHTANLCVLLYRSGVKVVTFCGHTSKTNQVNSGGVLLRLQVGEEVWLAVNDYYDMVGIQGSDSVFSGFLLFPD
Text: as §1, §2, §3, §4

[2] = system: shunt pathway activated by cobra venom factor; experiment: Test, Code 036 (C-Shunt inhibitor); format: cell-based, human; conditions: higher well number indicates higher activity
Text: as §1, §2, §3, §4

whole complement = experiment: In vivo activity, complement level reduction in serum of dosed guinea pigs (capillary tube assay); parameters: species or system guinea pig
complement system = conditions: in words; literature; cited from earlier work
[3] = in words; literature; cited from earlier work
[4] = system: total hemolytic complement activity; conditions: human serum; in words; cited from earlier work
[5] = system: total hemolytic complement activity; conditions: human serum, in vitro; in words; cited from earlier work
[6] = Table I, activity in wells, twofold serial dilution assay
[7] = Table II (intermediates), twofold serial dilution
[8] = Table II, intraperitoneal, time 30 min.
[9] = Table II, intraperitoneal, time 60 min.
[10] = Table II, intraperitoneal, time 120 min.
[11] = Table II, intravenous, time 2 min.
[12] = Table II, intravenous, time 30 min.
[13] = Table II, intravenous, time 120 min.

## O=C(Nc1ccc(C(=O)Nc2cc(C(=O)Nc3cc(S(=O)(=O)O)cc4cc(S(=O)(=O)O)cc(S(=O)(=O)O)c34)cc(C(=O)Nc3cc(S(=O)(=O)O)cc4cc(S(=O)(=O)O)cc(S(=O)(=O)O)c34)c2)c(S(=O)(=O)O)c1)Nc1ccc(C(=O)Nc2cc(C(=O)Nc3cc(S(=O)(=O)O)cc4cc(S(=O)(=O)O)cc(S(=O)(=O)O)c34)cc(C(=O)Nc3cc(S(=O)(=O)O)cc4cc(S(=O)(=O)O)cc(S(=O)(=O)O)c34)c2)c(S(=O)(=O)O)c1 [8,8',8",8'"Ureylenebis[(2-sulfo-4,1-phenylene)carbonylimino-s-phenenylbis(carbonylimino)]tetra-1,3,6-naphthalenetrisulfonic acid tetradecyl sodium salt]
[1]; [6]
  C-Late 035 Wells: +5 Wells
Activated human C1; [6]
  Cl 026 Wells: +8 Wells
[2]; [6]
  Shunt Inhibition 036 Wells: +5 Wells
Whole complement; Table I, intravenous, 200 mg/kg, time 2 minutes
  In Vivo Activity (Guinea Pig) % Inhibition: -97%
Whole complement; Table I, intravenous, 200 mg/kg, time 30 minutes
  In Vivo Activity (Guinea Pig) % Inhibition: -96%
Whole complement; Table I, intravenous, 200 mg/kg, time printed 20 minutes
  In Vivo Activity (Guinea Pig) % Inhibition: -95%

## Nc1ccc(C(=O)Nc2cc(C(=O)Nc3cc(S(=O)(=O)O)cc4cc(S(=O)(=O)O)cc(S(=O)(=O)O)c34)cc(C(=O)Nc3cc(S(=O)(=O)O)cc4cc(S(=O)(=O)O)cc(S(=O)(=O)O)c34)c2)c(S(=O)(=O)O)c1 [8,8'-[5-(4-Amino-2-sulfobenzamido)-1,3-phenylenedicarbonylimino]di-1,3,6-naphthalenetrisulfonic acid heptasodium salt]
[1]; [7]
  C-Late 035 Wells: +3 Wells
Activated human C1; [7]
  Cl 026 Wells: +6 Wells
[2]; [7]
  Shunt Inhibition 036 Wells: +2 Wells
Whole complement; [8]
  In Vivo Activity (Guinea Pig) % Inhibition: -45%
Whole complement; [9]
  In Vivo Activity (Guinea Pig) % Inhibition: -61%
Whole complement; [10]
  In Vivo Activity (Guinea Pig) % Inhibition: -73%
Whole complement; [11]
  In Vivo Activity (Guinea Pig) % Inhibition: -98%
Whole complement; [12]
  In Vivo Activity (Guinea Pig) % Inhibition: -79%
Whole complement; [13]
  In Vivo Activity (Guinea Pig) % Inhibition: -45%

## O=C(Nc1cc(S(=O)(=O)O)cc2cc(S(=O)(=O)O)cc(S(=O)(=O)O)c12)c1cc(NC(=O)c2ccc([N+](=O)[O-])cc2S(=O)(=O)O)cc(C(=O)Nc2cc(S(=O)(=O)O)cc3cc(S(=O)(=O)O)cc(S(=O)(=O)O)c23)c1 [8,8'-[5-(4-Nitro-2-sulfobenzamido)-1,3-phenylenedicarbonylimino]di-1,3,6-naphthalenetrisulfonic acid heptasodium salt]
[1]; [7]
  C-Late 035 Wells: +2 Wells
Activated human C1; [7]
  Cl 026 Wells: +4 Wells
[2]; [7]
  Shunt Inhibition 036 Wells: +1 Wells
Whole complement; [8]
  In Vivo Activity (Guinea Pig) % Inhibition: -40%
Whole complement; [9]
  In Vivo Activity (Guinea Pig) % Inhibition: -55%
Whole complement; [10]
  In Vivo Activity (Guinea Pig) % Inhibition: -74%
Whole complement; [11]
  In Vivo Activity (Guinea Pig) % Inhibition: -91%
Whole complement; [12]
  In Vivo Activity (Guinea Pig) % Inhibition: -59%
Whole complement; [13]
  In Vivo Activity (Guinea Pig) % Inhibition: -51%

## Cc1ccc(C(=O)Nc2ccc(S(=O)(=O)O)c3cc(S(=O)(=O)O)cc(S(=O)(=O)O)c23)cc1NC(=O)c1cccc(NC(=O)Nc2cccc(C(=O)Nc3cc(C(=O)Nc4ccc(S(=O)(=O)O)c5cc(S(=O)(=O)O)cc(S(=O)(=O)O)c45)ccc3C)c2)c1 [Suramin]
Complement system
  anticomplementary effect / complement inhibition: competitive inhibitor of the complement system

## Nc1ccc2cc(S(=O)(=O)O)cc(O)c2c1N=Nc1ccc(NC(=O)Nc2ccc(N=Nc3c(N)ccc4cc(S(=O)(=O)O)cc(O)c34)c(S(=O)(=O)O)c2)cc1S(=O)(=O)O [chlorazol fast pink, 3,3'-ureylenebis-[6-(2-amino-8-hydroxy-6-sulfo-1-naphthylazo)]benzenesulfonic acid, tetrasodium salt]
Complement system
  anticomplementary effect / complement inhibition: anticomplementary effect

## NCCCCCC(=O)O [epsilon-aminocaproic acid]
[3]
  success in the treatment of hereditary angioneurotic edema: used with success in the treatment of hereditary angioneurotic edema

## NC[C@H]1CC[C@H](C(=O)O)CC1 [tranexamic acid]
[3]
  success in the treatment of hereditary angioneurotic edema: used with success in the treatment of hereditary angioneurotic edema

## heparin
Complement system
  anticomplementary effect / complement inhibition: anticomplementary effect

## pentosanpoly-sulfoester
[4]
  anticomplementary activity (reduction in total hemolytic complement activity): anticomplementary activity on human serum both in vitro and in vivo
[5]
  anticomplementary activity (reduction in total hemolytic complement activity): anticomplementary activity on human serum both in vitro and in vivo
